{"source": "patent US10583115B2", "about": "“Modulators of 14-3-3 functionality and uses thereof” (University of South Australia, priority 2014, dated 2020)", "key": {"A549 cells [1]": {"test_system": "A549 cells", "assay": "A549 colony assay in soft agar", "assay_type": "cell-based, human", "conditions": "14 days", "experimental": "A549 cells (7500) were plated in 0.33% low-melting point agarose in DMEM with 10% FBS with and without RB compounds over a 0.5% low-melting point agarose base. Cells were incubated at 37° C. with 5% CO2 for 14 days and then colonies were photographed and analysed using Image J."}, "A549 cells [2]": {"test_system": "A549 cells", "assay": "A549 caspase-3 activation (NucView, flow cytometry)", "assay_type": "cell-based, human", "conditions": "48 hrs treatment", "experimental": "(§1) Jurkat cells were routinely set up in apoptosis assays at 2×10^5/ml in RPMI with 0.5% FBS. After treatment, cells were stained either with 200 nM TMRE, 5 μl/ml NucView™ (Biotium), or Annexin V-FITC (Roche) for 15 mins prior to analysis by flow cytometry. Forward- and side-scatter properties were used to exclude debris and a ‘viable’ gate corresponding to the intact, PI negative cell population was used for fluorescence analysis. For A549, cells at 90% confluency were treated with RB compounds for 48 hrs in DMEM with 0.5% FBS. After treatment, cells were released with trypsin and then stained with NucView™ prior to analysis by flow cytometry."}, "Jurkat cells [3]": {"test_system": "Jurkat cells", "assay": "Jurkat apoptosis assays (TMRE, caspase 3, Annexin V, viability by flow cytometry)", "assay_type": "cell-based", "experimental": "as §1"}, "[4]": {"assay": "Toxicity of daily intraperitoneal dosing in mice", "assay_type": "in vivo, Balb/C nude mice", "experimental": "Finally, we studied the effects of RB-012 in vivo. To assess any potential toxic effects, Balb/C nude mice were administered RB-012, delivered in saline, daily by intra-peritoneal injection at 5 mg/kg."}, "A549 cells [5]": {"test_system": "A549 cells", "assay": "A549 cell viability by MTS assay", "assay_type": "cell-based, human", "conditions": "48 hrs treatment", "experimental": "A549 cells (2500/well) were plated in 96 well trays in DMEM with 0.5% FBS and cultured at 37° C. with 5% CO2 overnight. The following day RB compounds were added and cells incubated for a further 48 hours prior to removal of the medium and replacement with MTS reagent diluted 1:6 in Dulbecco's PBS. The cells were incubated at 37° C. for a further 4 hours and the conversion of MTS to the coloured formazan compound determined by measurement of absorbance at 490 nm."}, "Jurkat cells [6]": {"test_system": "Jurkat cells", "assay": "Immunoblotting of signalling and apoptosis markers in Jurkat cells", "assay_type": "cell-based", "conditions": "7.5 μM, time course", "experimental": "Jurkat cells were treated at 5×10^5/ml in RPMI with 0.5% FBS as detailed. Cells were harvested by centrifugation at 1500 g for 5 mins and washed with PBS prior to lysis in NP40 lysis buffer (10 mM Tris-HCl pH7.4, 137 mM NaCl, 10% glycerol, 1% NP40, protease inhibitor (Roche), 4 mM NaF, 2 mM Na-vanadate, 10 mM β-glycerophosphate, 1 mM Na-pyrophosphate, 1 mM Na-molybdate) for 30 minutes on ice with vortexing. The lysates were clarified at 13,000 rpm for 15 minutes at 4° C. and protein concentration determined using BCA assay (Pierce). 30-40 μg of lysate were run on to Criterion-XT 4-12% Bis-Tris gels (Bio-Rad), followed by transfer onto nitrocellulose. The filters were blocked for 30 minutes at room temperature in TNT buffer (10 mM Tris-HCl pH8, 150 mM NaCl, 0.05% Tween-20) containing blocking buffer (Roche), prior to incubation with antibodies over night. Antibodies used were from Cell Signalling; Phospho-p38 MAPK(#4571), Phospho-SAPK/JNK(81E11), Phospho-p44/42 MAP kinase (#9101), Phospho-AKT S473 (#9271), p44/42 MAP kinase (#9102), AKT (#9272), BID (#2002), caspase-3 (#9602), PARP (#9542), and Santa Cruz Biotechnology; pan 14-3-3 K19 (sc-629). Following antibody binding, filters were washed in TNT for 1 hr at room temperature, incubated with 1/12,500 anti-rabbit or anti-mouse HRP secondary antibody (Pierce) for 1 hr at room temperature and finally washed for 1 hr with TNT before incubation with Clarity western ECL reagent (Bio-Rad). Filters were exposed on a LAS 4000 imager. Blots were analysed using Multi-gauge/Colony software FUJI FILM)."}, "A549 xenograft": {"test_system": "A549 xenograft", "assay": "A549 xenograft study", "assay_type": "in vivo, BALB/c nude mice", "experimental": "All experimental procedures involving animals were conducted in accordance with the NHMRC Australian Code for the Care and Use of Animals for Scientific Purposes and with approval by the institutional animal ethics committee. BALB/c nude mice (Nu/Nu, female, 5-6 weeks old) were purchased from the Animal Resources Centre (Perth, Wash.) and maintained under pathogen-free conditions. A549 cells (5×106) in 100 μl PBS were injected subcutaneously into the flanks of the mice and the resulting tumour were measured using digital callipers. The tumour volume was calculated using the following formula: Volume=(larger diameter)×(small diameter)2/2. Once the tumours had reached 100 mm3, mice were divided into groups of 9 and each group administered either RB-012 in saline, FTY720 in saline or saline alone by intraperitoneal injection daily. Initially RB-12 and FTY720 were administered at 2 mg/kg for two days and then the dose was increased to 5 mg/kg for two weeks after which RB-012 was increased to 10 mg/kg but FTY720 maintained at 5 mg/kg. During this dosing regime tumours were monitored twice a week. Differences between samples were analysed using 2 way Anova and statistical significance was accepted at P<0.05.\nTo assess the effect of RB-012 on human lung cancer growth in vivo, A549 cells were implanted subcutaneously on the flanks of Balb/C nude mice and tumours allowed to develop until they had reached a volume of 100 mm^3. RB-012 or saline was then administered daily to assess the effect on tumour growth. Initially, to reduce the cramping and encourage tolerance, 2 mg/kg RB-012 was administered for two days and then the dose was increased to 5 mg/kg daily for two weeks. Tumour volume was monitored twice a week and after two weeks of treatment mice administered RB-012 had tumours that were 20% smaller than mice receiving saline. […] The tumours on the RB-012 treated mice continued to grow more slowly and after the third week were 30% smaller than those of saline-treated mice (P<0.05). […] Therefore we were unable to increase FTY720 dosing to match RB-012."}, "sphingosine kinases (SK)": {"test_system": "sphingosine kinases (SK)", "assay": "Effect on sphingosine kinase (SK) activity", "conditions": "data not shown"}}, "note": "pIC50: −log10 of the molar value. Entries after “also recorded” stand apart in the source; their conditions may differ.", "data": [{"compound": "CCCCCCCCc1ccc(CC[N+]2(C)CCCCC2)cc1", "note": "[RB-012]", "values": [{"measurement": "colony formation in soft agar", "setting": "A549 cells [1]", "value": "slightly greater potency"}, {"measurement": "caspase-3 activation", "setting": "A549 cells [2]", "value": "induce caspase activation; also recorded: greater potency"}, {"measurement": "ED50 for apoptosis induction, in words", "setting": "Jurkat cells [3]", "value": "low micromolar range"}, {"measurement": "Annexin V presentation", "setting": "Jurkat cells [3]; 5 μM, 24 hours", "value": "Annexin V presentation"}, {"measurement": "cell viability", "setting": "Jurkat cells [3]; 5 μM, 24 hours", "value": "loss of viability"}, {"measurement": "apoptosis as determined by caspase-3 activation", "setting": "Jurkat cells [3]; 5 μM, within 5 hours", "value": "readily able to activate apoptosis"}, {"measurement": "time within which cramping after injection subsided", "setting": "[4]; 5 mg/kg daily intra-peritoneal", "value": "10 to 20", "unit": "min"}, {"measurement": "adverse effects", "setting": "[4]; 5 mg/kg daily intra-peritoneal in saline, 28 days", "value": "no adverse effects were noted with the exception of minor cramping"}, {"measurement": "body weight", "setting": "[4]; 5 mg/kg daily intra-peritoneal, 28 days", "value": "unaltered"}, {"measurement": "steady state haemopoiesis (blood and bone marrow samples)", "setting": "[4]; end of treatment period, data not shown", "value": "no changes were observed"}, {"measurement": "cell viability / growth and survival (MTS), in words", "setting": "A549 cells [5]", "value": "inhibited"}, {"measurement": "pIC50", "setting": "A549 cells [5]; Homo sapiens, A549", "value": 5.26}, {"measurement": "time at which BID cleavage is detected", "setting": "Jurkat cells [6]", "value": 3, "unit": "h"}, {"measurement": "time at which PARP cleavage is detectable", "setting": "Jurkat cells [6]", "value": 2, "unit": "h"}, {"measurement": "time at which clipping of 14-3-3 protein is detectable", "setting": "Jurkat cells [6]", "value": 2, "unit": "h"}, {"measurement": "time to commitment to apoptosis", "setting": "Jurkat cells [6]", "value": "2 to 3", "unit": "h"}, {"measurement": "tolerability at 10 mg/kg", "setting": "A549 xenograft; 10 mg/kg daily i.p.", "value": "well tolerated without adverse effects"}, {"measurement": "tumours smaller than in mice receiving saline", "setting": "A549 xenograft; after two weeks, 2 mg/kg for two days, then 5 mg/kg daily i.p.", "value": 20, "unit": "%"}, {"measurement": "growth of A549 xenograft, in words", "setting": "A549 xenograft; daily i.p., 2 then 5 then 10 mg/kg", "value": "retarded"}, {"measurement": "effect on SK activity", "setting": "sphingosine kinases (SK)", "value": "does not affect SK activity"}]}]}
